We go through 19 compounds from patent US8232308B2, “Methods for treating a disease in which Rho kinase is involved” (UBE Industries, Ltd., priority 2003, dated 2012).

Structures can show the parent of a compound that is named as a salt.

System in one data set: not given
Experiment: not given
Conditions: not given
As to `CC(C)(N)c1ccc(-c2ccc3[nH]ncc3c2OC(F)F)cc1` (as salt: hydrochloride) [Compound 5-53, 5-[4-(1-Amino-1-methylethyl)phenyl]-4-difluoro-methoxy-1H-indazole dihydrochloride], the melting point is 227 to 230 °C (dec.).
Consider `CCCCOc1c(-c2ccc(C(C)(C)N)cc2)ccc2[nH]ncc12` (as salt: hydrochloride) [Compound 5-55, 5-[4-(1-Amino-1-methylethyl)phenyl]-4-n-butoxy-1H-indazole dihydrochloride], for which the melting point was 227 to 229 °C (dec.).
On to `C=CCOc1c(-c2ccc(C(C)(C)N)cc2)ccc2[nH]ncc12` (as salt: hydrochloride) [Compound 5-57, 4-Allyloxy-5-[4-(1-amino-1-methylethyl)phenyl]-1H-indazole dihydrochloride], for which the melting point is 205 to 207 °C (dec.).
Regarding `CCCOc1c(-c2ccc(C(C)(C)N)cn2)ccc2[nH]ncc12` (as salt: hydrochloride) [Compound 5-58, 5-[5-(1-Amino-1-methylethyl)pyridin-2-yl]-4-n-propoxy-1H-indazole trihydrochloride], the melting point is 194 to 198 °C (dec.).
Compound `CC(C)(N)c1ccc(-c2ccc3[nH]ncc3c2OC(F)F)nc1` (as salt: hydrochloride) [Compound 5-59, 5-[5-(1-Amino-1-methylethyl)pyridin-2-yl]-4-difluoromethoxy-1H-indazole trihydrochloride] returned a melting point of 170 to 173 °C.
Regarding `CCOc1c(-c2ccc(C(N)(CC)CC)cn2)ccc2[nH]ncc12` (as salt: hydrochloride) [Compound 5-60, 5-[5-(1-Amino-1-ethylpropyl)pyridin-2-yl]-4-ethoxy-1H-indazole trihydrochloride], the melting point was 200 to 202 °C (dec.).
With `CC(C)(N)c1ccc(-c2ccc3[nH]ncc3c2-c2ccncc2)cc1` (as salt: hydrochloride) [Compound 5-61, 5-[4-(1-Amino-1-methylethyl)phenyl]-4-(pyridin-4-yl)-1H-indazole trihydrochloride], the melting point is 266 to 269 °C (dec.).
The same measure, in the same setting: the value for `CC(C)(N)c1ccc(-c2ccc3[nH]ncc3c2-c2ccccn2)cc1` (as salt: hydrochloride) [Compound 5-63, 5-[4-(1-Amino-1-methylethyl)phenyl]-4-(pyridin-2-yl)-1H-indazole trihydrochloride] was 210 to 214 °C (dec.); that for `CC(C)(N)c1ccc(-c2ccc3[nH]ncc3c2-c2cn[nH]c2)cc1` (as salt: hydrochloride) [Compound 5-64, 5-[4-(1-Amino-1-methylethyl)phenyl]-4-(pyrazol-4-yl)-1H-indazole trihydrochloride] was 259 to 267 °C (dec.); that for `CC(C)(N)c1ccc(-c2ccc3[nH]ncc3c2-c2cnco2)cc1` (as salt: hydrochloride) [Compound 5-66, 5-[4-(1-Amino-1-methylethyl)phenyl]-4-(oxazol-5-yl)-1H-indazole dihydrochloride] was 212 to 214 °C (dec.).
With `CC(C)(N)c1ccc(-c2ccc3[nH]ncc3c2-c2ccno2)cc1` (as salt: hydrochloride) [Compound 5-68, 5-[4-(1-Amino-1-methylethyl)phenyl]-4-(isoxazol-5-yl)-1H-indazole dihydrochloride], the melting point was 256 to 258 °C (dec.).
As for `CC(C)(N)c1ccc(-c2ccc3[nH]ncc3c2O)nc1` (as salt: hydrochloride) [Compound 5-69, 5-[5-(1-Amino-1-methylethyl)pyridin-2-yl]-4-hydroxy-1H-indazole trihydrochloride], the melting point is 255 to 260 °C (dec.).
Consider `CC(C)(N)c1ccc(-c2ccc3[nH]ncc3c2OC2CC2)nc1` (as salt: hydrochloride) [Compound 5-70, 5-[5-(1-Amino-1-methylethyl)pyridin-2-yl]-4-cyclo-propyloxy-1H-indazole trihydrochloride], for which the melting point is 203 to 205 °C (dec.).
For `CCC(N)(CC)c1ccc(-c2ccc3[nH]ncc3c2OC2CC2)nc1` (as salt: hydrochloride) [Compound 5-71, 5-[5-(1-Amino-1-ethylpropyl)pyridin-2-yl]-4-cyclo-propyloxy-1H-indazole trihydrochloride], the melting point is 207 to 209 °C (dec.).
Regarding `CCC(N)(CC)c1ccc(-c2ccc3[nH]ncc3c2OC(F)F)cc1` (as salt: hydrochloride) [Compound 5-72, 5-[4-(1-Amino-1-ethylpropyl)phenyl]-4-difluoro-methoxy-1H-indazole dihydrochloride], the melting point lay in the range of 234 to 237 °C.
The same measure, in the same setting: the value for `C=C(C)c1n[nH]c2ccc(-c3ccc(C(C)(C)N)cc3)cc12` (as salt: trifluoroacetate) [Compound 5-15, 5-[4-(1-Amino-1-methylethyl)phenyl]-3-(1-methyl-vinyl)-1H-indazole monotrifluoroacetate] was 221 to 225 °C (dec.).
For the compound `CC(C)(N)c1ccc(-c2ccc3[nH]ncc3c2OCC2CC2)nc1.Cl.Cl.Cl` [Compound 5-73, 5-[5-(1-Amino-1-methylethyl)pyridin-2-yl]-4-cyclo-propylmethyloxy-1H-indazole trihydrochloride], the melting point is 270 to 272 °C (dec.).
In turn, `CN(C)/C=C/C(=O)c1c(-c2ccc(C(C)(C)NC(=O)OC(C)(C)C)cc2)ccc2nn(C3CCCCO3)cc12` (centres unmarked) [Compound 29, 5-[4-(1-tert-butoxycarbonylamino-1-methylethyl)phenyl]-4-(3-dimethylaminoacryloyl)-2-(tetra-hydropyran-2-yl)-2H-indazole] came in with a melting point of 191 to 194 °C.
In turn, `CC(C)(C)OC(=O)NC(C)(C)c1ccc(-c2ccc3nn(C4CCCCO4)cc3c2-c2cc[nH]n2)cc1` (centres unmarked) [Compound 30, 5-[4-(1-tert-butoxycarbonylamino-1-methylethyl)phenyl]-4-(pyrazol-3-yl)-2-(tetrahydropyran-2-yl)-2H-indazole] yielded a melting point of 99 to 105 °C.

The target in a further data set is T1, activated ROCK II (Rattus norvegicus, UniProt Q62868).
T1 construct: purchased Upstate Biotechnology 14-338
T1 sequence (Q62868 11-550 limits assumed): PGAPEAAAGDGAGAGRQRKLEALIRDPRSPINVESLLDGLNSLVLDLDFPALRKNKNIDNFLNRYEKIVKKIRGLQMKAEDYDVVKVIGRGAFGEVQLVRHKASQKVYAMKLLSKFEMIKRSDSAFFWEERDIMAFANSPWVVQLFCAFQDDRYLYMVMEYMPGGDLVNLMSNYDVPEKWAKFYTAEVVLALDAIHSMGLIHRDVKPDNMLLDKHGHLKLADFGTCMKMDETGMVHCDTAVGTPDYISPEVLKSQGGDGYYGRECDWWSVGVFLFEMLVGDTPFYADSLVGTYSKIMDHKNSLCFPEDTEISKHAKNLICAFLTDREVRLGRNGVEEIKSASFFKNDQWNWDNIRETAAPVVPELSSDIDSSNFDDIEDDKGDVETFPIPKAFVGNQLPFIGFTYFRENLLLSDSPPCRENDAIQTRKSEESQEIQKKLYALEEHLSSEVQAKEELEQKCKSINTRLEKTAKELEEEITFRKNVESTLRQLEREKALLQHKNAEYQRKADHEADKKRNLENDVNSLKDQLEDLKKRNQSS
Kind of data set: Test for Evaluation of Inhibiting Activity to Rho Kinase. The format is biochemical. Particulars: S6 Kinase Substrate Peptide, [γ-32P]ATP, 30° C. for 15 minutes, Ki=IC50/(1+S/Km).
As to `CC(C)(N)c1ccc(-c2ccc3[nH]ncc3c2OCC2CC2)nc1.Cl.Cl.Cl` [Compound 5-73, 5-[5-(1-Amino-1-methylethyl)pyridin-2-yl]-4-cyclo-propylmethyloxy-1H-indazole trihydrochloride], the affinity, expressed as Ki, was 146 nM.

A word on the melting point: it is the temperature, or range, at which the solid turns liquid. One may read the Ki as the equilibrium dissociation constant of an inhibitor or competing ligand from its target. Low values mean tighter binding, high ones weaker binding.
